Values quoted from earlier work in patent US20050101548A1, “Antimicrobial derivatives” (priority 2003, published 2005).

Assays:
[1] = system: Gram-negative bacteria
[2] = system: S. pneumoniae
[3] = system: macrolide-sensitive and resistant bacteria

SMILES | antibacterial activity against S. pneumoniae [2] | further results
CC[C@H]1OC(=O)[C@H](C)[C@@H](O[C@H]2C[C@@](C)(OC)[C@@H](O)[C@H](C)O2)[C@H](C)[C@@H](O[C@@H]2O[C@H](C)C[C@H](N(C)C)[C@H]2O)[C@](C)(O)C[C@@H](C)C(=O)[C@H](C)[C@@H](O)[C@]1(C)O [erythromycin A] | – | activity against Gram-negative bacteria [1]: only weak activity
CC[C@H]1OC(=O)[C@H](C)C(=O)[C@H](C)[C@@H](O[C@@H]2O[C@H](C)C[C@H](N(C)C)[C@H]2O)[C@@]2(C)C[C@@H](C)/C(=N\C(C)=O)[C@H](C)[C@@H](OCC(=NOCc3ccc(-c4cccnc4)s3)CO2)[C@]1(C)O [EP-12728] | possess antibacterial activity | –
C=C1CO[C@@H]2[C@@H](C)/C(=N/C(C)=O)[C@H](C)C[C@@](C)(OC1)[C@H](O[C@@H]1O[C@H](C)C[C@H](N(C)C)[C@H]1O)[C@@H](C)C(=O)[C@@H](C)C(=O)O[C@H](CC)[C@@]2(C)O [EP-1304] | – | activity against some macrolide-sensitive and resistant bacteria in vivo [3]: exhibits activity
CC[C@H]1OC(=O)[C@H](C)C(=O)[C@H](C)[C@@H](O[C@@H]2O[C@H](C)C[C@H](N(C)C)[C@H]2O)[C@@]2(C)C[C@@H](C)/C(=N\C(C)=O)[C@H](C)[C@@H](OCC(=NOCc3ccccc3)CO2)[C@]1(C)O [EP-1562] | possess antibacterial activity | –
